Data on 19 molecules can be found in patent publication US9533961B2, “Molecules having certain pesticidal utilities, and intermediates, compositions, and processes related thereto” (priority 2014, dated 2017).

Assay type in all cases: in vivo
For data set [1], the system named is Cabbage Looper (Trichoplusia ni, TRIPNI) ("CL"). Nature of the data set: Bioassay on Cabbage Looper (CL), 128-well diet tray assay. The following applies: 168 h, read-out: CL % Control (or Mortality) rating. As to the method:
(§1) Certain molecules disclosed in this document were tested against BAW and CEW using procedures described in the following examples. In the reporting of the results, the “BAW & CL Rating Table” was used (See Table Section).
Bioassays on CL were conducted using a 128-well diet tray assay. one to five second instar CL larvae were placed in each well (3 mL) of the diet tray that had been previously filled with 1 mL of artificial diet to which 50 μg/cm^2 of the test compound (dissolved in 50 μL of 90:10 acetone-water mixture) had been applied (to each of eight wells) and then allowed to dry. Trays were covered with a clear self-adhesive cover and held at 25° C., 14:10 light-dark for five to seven days. Percent mortality was recorded for the larvae in each well; activity in the eight wells was then averaged. The results are indicated in the table entitled “Table ABC: Biological Results” (See Table Section).

Data set [2] relates to Beet Armyworm (Spodoptera exigua, LAPHEG) ("BAW"). Nature of the data set: Bioassay on Beet Armyworm (BAW), 128-well diet tray assay. The following applies: 168 h, 50 μg/cm^2 on artificial diet, second instar larvae, five to seven days, 25° C., average of eight wells, read-out: BAW % Control (or Mortality) rating. As to the method: as §1
Bioassays on BAW were conducted using a 128-well diet tray assay. one to five second instar BAW larvae were placed in each well (3 mL) of the diet tray that had been previously filled with 1 mL of artificial diet to which 50 μg/cm^2 of the test compound (dissolved in 50 μL of 90:10 acetone-water mixture) had been applied (to each of eight wells) and then allowed to dry. Trays were covered with a clear self-adhesive cover and held at 25° C., 14:10 light-dark for five to seven days. Percent mortality was recorded for the larvae in each well; activity in the eight wells was then averaged. The results are indicated in the table entitled “Table ABC: Biological Results” (See Table Section).

For data set [3], the system named is Yellow Fever Mosquito (Aedes aegypti, AEDSAE) ("YFM"). Kind of data set: Bioassay on Yellow Fever Mosquito (YFM), 96-well plate larval assay. To be noted: about 1 day-old larvae, from 4000 ppm master plate, scored on mortality after 3 days. As for the experimental part:
Certain molecules disclosed in this document were tested against YFM using procedures described in the following paragraph. In the reporting of the results, the “YFM Rating Table” was used (See Table Section).
Master plates containing 400 μg of a molecule dissolved in 100 μL of dimethyl sulfoxide (DMSO) (equivalent to a 4000 ppm solution) are used. A master plate of assembled molecules contains 15 μL per well. To this plate, 135 μL of a 90:10 water:acetone mixture is added to each well. A robot (Biomek® NXP Laboratory Automation Workstation) is programmed to dispense 15 μL aspirations from the master plate into an empty 96-well shallow plate (“daughter” plate). There are 6 reps (“daughter” plates) created per master. The created daughter plates are then immediately infested with YFM larvae.
The day before plates are to be treated, mosquito eggs are placed in Millipore water containing liver powder to begin hatching (4 g. into 400 mL). After the daughter plates are created using the robot, they are infested with 220 μL of the liver powder/larval mosquito mixture (about 1 day-old larvae). After plates are infested with mosquito larvae, a non-evaporative lid is used to cover the plate to reduce drying. Plates are held at room temperature for 3 days prior to grading. After 3 days, each well is observed and scored based on mortality.

Consider `CC(C)c1ccccc1C(=O)NCc1ccc(-c2ncn(-c3ccc(OC(F)(F)F)cc3)n2)cc1` [F31, 2-Isopropyl-N-(4-(1-(4-(trifluoromethoxy)phenyl)-1H-1,2,4-triazol-3-yl)benzyl)benzamide], for which the mortality at 50 µg/cm2 in data set [1] and in data set [2] was 0% in each case. In addition, the “YFM % Control (or Mortality) rating” value in data set [3] is reported as “D (No activity noticed in this bioassay)”.
With `O=C(Nc1ccc(-c2ncn(-c3ccc(OC(F)(F)F)cc3)n2)cc1)c1cccc2c1OC(F)(F)O2` [F21, 2,2-Difluoro-N-(4-(1-(4-(trifluoromethoxy)phenyl)-1H-1,2,4-triazol-3-yl)phenyl)benzo[d][1,3]dioxole-4-carboxamide], the mortality at 50 µg/cm2 in data set [1] and in data set [2] was 50 to 100% each time.
For the molecule `Cc1cccc(C)c1-c1ccccc1C(=O)NCc1ccc(-c2ncn(-c3ccc(OC(F)(F)F)cc3)n2)cc1` [F37, 2′,6′-Dimethyl-N-(4-(1-(4-(trifluoromethoxy)phenyl)-1H-1,2,4-triazol-3-yl)benzyl)biphenyl-2-carboxamide], the mortality at 50 µg/cm2 in data set [1] is 50 to 100%; in data set [2], 0 to 50%. The “YFM % Control (or Mortality) rating” value in data set [3] is “A (80-100)”.
The corresponding values for `O=C(NCc1ccc(-c2ncn(-c3ccc(OC(F)(F)F)cc3)n2)cc1)c1ccccc1` [F32, N-(4-(1-(4-(trifluoromethoxy)phenyl)-1H-1,2,4-triazol-3-yl)benzyl)benzamide] are 0%, 0% and “D (No activity noticed in this bioassay)”.
As to `O=C(Nc1ccc(-c2ncn(-c3ccc(OC(F)(F)F)cc3)n2)cc1)c1ccc2c(c1)OC(F)(F)O2` [F22, 2,2-Difluoro-N-(4-(1-(4-(trifluoromethoxy)phenyl)-1H-1,2,4-triazol-3-yl)phenyl)benzo[d][1,3]dioxole-5-carboxamide], the mortality at 50 µg/cm2 in data set [1] and in data set [2] was 0% throughout.
As to `O=C(Nc1ccc(-c2ncn(-c3ccc(OC(F)(F)F)cc3)n2)cc1)c1cccc(Oc2ccccc2)c1` [F5, 3-Phenoxy-N-(4-(1-(4-(trifluoromethoxy)phenyl)-1H-1,2,4-triazol-3-yl)phenyl)benzamide], the mortality at 50 µg/cm2 in data set [1] is 50 to 100%; in data set [2], 0%. Also, the “YFM % Control (or Mortality) rating” value in data set [3] is recorded as “D (No activity noticed in this bioassay)”.
On to `O=C(Nc1ccc(-c2ncn(-c3ccc(OC(F)(F)C(F)(F)F)cc3)n2)cc1)c1ccccc1Oc1ccccc1` [F8, N-(4-(1-(4-(Perfluoroethoxy)phenyl)-1H-1,2,4-triazol-3-yl)phenyl)-2-phenoxybenzamide], for which the mortality at 50 µg/cm2 in data set [1] and in data set [2] was 0% throughout. For the same molecule, the “YFM % Control (or Mortality) rating” value in data set [3] was “D (No activity noticed in this bioassay)”.
On to `COc1ccccc1C(=O)Nc1ccc(-c2ncn(-c3ccc(OC(F)(F)C(F)(F)F)cc3)n2)cc1` [F12, 2-Methoxy-N-(4-(1-(4-(perfluoroethoxy)phenyl)-1H-1,2,4-triazol-3-yl)phenyl)benzamide], for which the mortality at 50 µg/cm2 is 50 to 100% in data set [1] and 0% in data set [2]. In addition, the “YFM % Control (or Mortality) rating” value in data set [3] is recorded as “D (No activity noticed in this bioassay)”.
In the case of `Cc1ccc(C(C)C)c(C(=O)NCc2ccc(-c3ncn(-c4ccc(OC(F)(F)F)cc4)n3)cc2)c1` [F39, 2-Isopropyl-5-methyl-N-(4-(1-(4-(trifluoromethoxy)phenyl)-1H-1,2,4-triazol-3-yl)benzyl)benzamide], the mortality at 50 µg/cm2 in data set [1] and in data set [2] was 0% in each case. Moreover, in data set [3], the “YFM % Control (or Mortality) rating” value was “D (No activity noticed in this bioassay)”.
Take `CC(C)COc1cccc(C(=O)Nc2ccc(-c3ncn(-c4ccc(OC(F)(F)F)cc4)n3)cc2)c1` [F19, 3-Isobutoxy-N-(4-(1-(4-(trifluoromethoxy)phenyl)-1H-1,2,4-triazol-3-yl)phenyl)benzamide]: the mortality at 50 µg/cm2 is 50 to 100% in data set [1] and 0% in data set [2]. Also, the “YFM % Control (or Mortality) rating” value in data set [3] is reported as “D (No activity noticed in this bioassay)”.
For `CC(C)c1cccc(C(=O)NCc2ccc(-c3ncn(-c4ccc(OC(F)(F)F)cc4)n3)cc2)c1` [F28, 3-Isopropyl-N-(4-(1-(4-(trifluoromethoxy)phenyl)-1H-1,2,4-triazol-3-yl)benzyl)benzamide] the same measures were 0%, 50 to 100% and “D (No activity noticed in this bioassay)”.
Regarding `Cc1ccc(Cl)cc1-c1ccccc1C(=O)NCc1ccc(-c2ncn(-c3ccc(OC(F)(F)F)cc3)n2)cc1` [F34, 5′-Chloro-2′-methyl-N-(4-(1-(4-(trifluoromethoxy)phenyl)-1H-1,2,4-triazol-3-yl)benzyl)biphenyl-2-carboxamide], the mortality at 50 µg/cm2 in data set [1] was 50 to 100%; in data set [2], 0%. Besides, the “YFM % Control (or Mortality) rating” value in data set [3] is given as “D (No activity noticed in this bioassay)”.
For `O=C(NCc1ccc(-c2ncn(-c3ccc(OC(F)(F)F)cc3)n2)cc1)c1ccccc1-c1ccccc1` [F27, N-(4-(1-(4-(Trifluoromethoxy)phenyl)-1H-1,2,4-triazol-3-yl)benzyl)biphenyl-2-carboxamide] the same measures were 50 to 100%, 0 to 50% and “B (More than 0 - Less than 80)”.
For `O=C(Nc1ccc(-c2ncn(-c3ccc(OC(F)(F)C(F)(F)F)cc3)n2)cc1)c1ccc(Oc2ccccc2)cc1` [F10, N-(4-(1-(4-(perfluoroethoxy)phenyl)-1H-1,2,4-triazol-3-yl)phenyl)-4-phenoxybenzamide] the same measures were 0%, 0% and “D (No activity noticed in this bioassay)”.
For `CCOc1ccccc1Oc1ccccc1C(=O)Nc1ccc(-c2ncn(-c3ccc(OC(F)(F)F)cc3)n2)cc1` [F17, 2-(2-Ethoxyphenoxy)-N-(4-(1-(4-(trifluoromethoxy)phenyl)-1H-1,2,4-triazol-3-yl)phenyl)benzamide] the same measures were 0%, 0 to 50% and “D (No activity noticed in this bioassay)”.
Take `Cc1cc(F)ccc1-c1ccccc1C(=O)NCc1ccc(-c2ncn(-c3ccc(OC(F)(F)F)cc3)n2)cc1` [F40, 4′-Fluoro-2′-methyl-N-(4-(1-(4-(trifluoromethoxy)phenyl)-1H-1,2,4-triazol-3-yl)benzyl)biphenyl-2-carboxamide]: the mortality at 50 µg/cm2 in data set [1] and in data set [2] was 50 to 100% in each case. The “YFM % Control (or Mortality) rating” value in data set [3] is listed as “D (No activity noticed in this bioassay)”.
Turning to `COc1ccc(-c2ccccc2C(=O)NCc2ccc(-c3ncn(-c4ccc(OC(F)(F)F)cc4)n3)cc2)c(C)c1` [F38, 4′-Methoxy-2′-methyl-N-(4-(1-(4-(trifluoromethoxy)phenyl)-1H-1,2,4-triazol-3-yl)benzyl)biphenyl-2-carboxamide], the mortality at 50 µg/cm2 in data set [1] and in data set [2] was 0% each time. In data set [3], the “YFM % Control (or Mortality) rating” value is reported as “D (No activity noticed in this bioassay)”.
Take `CC(C)c1cccc(C(=O)Nc2ccc(-c3ncn(-c4ccc(OC(F)(F)C(F)(F)F)cc4)n3)cc2)c1` [F16, 3-Isopropyl-N-(4-(1-(4-(perfluoroethoxy)phenyl)-1H-1,2,4-triazol-3-yl)phenyl)benzamide]: the mortality at 50 µg/cm2 was 50 to 100% in data set [1] and 0% in data set [2]. Also, the “YFM % Control (or Mortality) rating” value in data set [3] was “D (No activity noticed in this bioassay)”.
The corresponding values for `O=C(Nc1ccc(-c2ncn(-c3ccc(OC(F)(F)F)cc3)n2)cc1)c1ccc(Oc2ccccc2)cc1` [F6, 4-Phenoxy-N-(4-(1-(4-(trifluoromethoxy)phenyl)-1H-1,2,4-triazol-3-yl)phenyl)benzamide] are 50 to 100%, 50 to 100% and “D (No activity noticed in this bioassay)”.

Broadly, the mortality is the share of the test organisms that died.
